This is an account of results in patent US9241972B2, “Use of Wnt agents to prevent hypoxic injury” (THE BOARD OF TRUSTEES OF THE LELAND STANFORD JUNIOR …, priority 2011, dated 2016).

SMILES strings stand for the structures. “Also recorded” adds a separate entry of the source.

One experiment has as its system β-catenin/TCF signaling. In words: β-catenin/TCF luciferase reporter assay in AML12 hepatocytes. The format is cell-based. As for the experimental part:
(§1) The differentiated non-transformed mouse hepatocyte cell line AML12 (ATCC Inc.) was cultured in Dulbecco's […] (DMEM)/F-12 media (1:1) supplemented with 10% fetal bovine serum (FBS), 1% penicillin-streptomycin antibiotics and 5 μg/ml insulin, 5 μg/ml transferrin, 5 ng/ml selenium as previously described (62). The human hepatocellular carcinoma cell lines Huh7 and HepG2 were grown in DMEM media containing 10% FBS and 1% penicillin-streptomycin antibiotics. Media was purchased from Hyclone (Logan, Utah). All other medium components were purchased from Invitrogen (Carlsbad, Calif.). Cultures were maintained at 37° C. in a hunified 5% CO2 atmosphere. For hypoxic conditions, cells were grown at 1% O2 in a custom-designed incubator (XVivo Hypoxia Chamber; BioSpherix) for 24 hrs.
Western Blot Analysis and Immunoprecipitation. Cells were treated with actinomycin D and TNFα, hydrogen peroxide (H2O2), hypoxia 1% for 24 hours or pre-treated with N-acetylcysteine (NAC), cobalt chloride (CoCl2), YC-1 (Alexis Biochemicals, San Diego, Calif.), Resveratrol or nicotinamide (NAM) as described in the figure legends. All other chemicals were purchased from Sigma Aldrich (Sigma Aldrich, St. Louis, Mo.). Total proteins (30 μg) were lysed with RIPA lysis buffer and separated by sodium dodecylsulfate-polyacrylamide gel electrophoresis. After transfer, the polyvinylidene diflouride membrane was blocked with 5% non-fat milk in Tris-buffered saline with 0.1% Tween-20 (TBST) and then incubated with primary antibodies at 4° C. overnight. After washing, the horseradish peroxidase-conjugated secondary antibodies were added for 30 minutes at room temperature. Antibody binding was visualized by enhanced chemiluminescence reagent (GE Healthcare BioSciences, Buckinghamshire, United Kingdom).
For the reporter assay, cells were seeded in a 24-well plate under triplicate conditions at 80% confluency. Cells were transfected the next day with plasmid pMegaTOPFLASH and pMegaFOPFLASH (β-catenin reporter construct containing LEF1/TCF binding sites) or 5×-HRE (hypoxia response element) and 1 μg of pEF1/Myc-His/LacZ plasmid using Lipofectamine 2000 (Invitrogen, Carlsbad, Calif.). Six hours after transfection, the media was replaced with DMEM/F12 media. 24 hours after transfection, cells were either pre-treated with drugs for one hour or incubated in hypoxia 1% for 24 hours as mentioned in the figure legends. After 2 days, luciferase and galactosidase expression were measured using the Dual-Light Reporter Gene Assay (Applied Biosystems, Foster City, Calif.) according to the manufacturer's instructions. Luciferase activity was normalized to β-galactosidase activity as an internal transfection control.
Background: Reporter assays use an easily measured gene product as a stand-in for the process of interest.

Experiment [1] deals with AML12 hepatocytes. The experiment is described as follows: Apoptosis under hypoxia by MTT assay and immunoblot for caspase-cleaved K18Asp237. The format is cell-based, mouse. The note with it: YC-1 pre-treatment (100 μmol/L) for 1 hour. As for the experimental part: Western Blot Analysis and Immunoprecipitation. Cells were treated with actinomycin D and TNFα, hydrogen peroxide (H2O2), hypoxia 1% for 24 hours or pre-treated with N-acetylcysteine (NAC), cobalt chloride (CoCl2), YC-1 (Alexis Biochemicals, San Diego, Calif.), Resveratrol or nicotinamide (NAM) as described in the figure legends. All other chemicals were purchased from Sigma Aldrich (Sigma Aldrich, St. Louis, Mo.). Total proteins (30 μg) were lysed with RIPA lysis buffer and separated by sodium dodecylsulfate-polyacrylamide gel electrophoresis. […]
For the assessment of cell proliferation and survival, a commercially available MTT (3-(4,5-dimethylthiazol-2-yl)-2,5-diphenyltetrazolium bromide) cell proliferation assay (Roche Applied Science, Indianapolis, Ind.) was used according to the manufacturer instructions. Absorbance was measured at 570 nm using a spectrophotometer.
Apoptosis was measured by western blot using Asp237 antibody that recognizes caspase-cleaved keratin18 or by using Caspase-Glo 3/7 Assay following the manusfacturer's instructions (Promega Corporation, Madison, Wis.). […] Caspase-Glo 3/7 reagent was added to each well in a 1:1 ratio and incubated for one hour before measuring luminescence using a LB96B dual injector luminometer (Berthold Technologies, Oak Ridge, Tenn.).
(Formazan colour is commonly taken as a measure of viable cells.)

Another experiment concerns HIF-1. The experiment is described as follows: HIF-1 / HRE luciferase reporter assay (and HIF-1α immunoblot) in AML12 hepatocytes. The format is cell-based, mouse. How it is done: as §1
Western Blot Analysis and Immunoprecipitation. […]
For the reporter assay, cells were seeded in a 24-well plate under triplicate conditions at 80% confluency. […] After 2 days, luciferase and galactosidase expression were measured using the Dual-Light Reporter Gene Assay (Applied Biosystems, Foster City, Calif.) according to the manufacturer's instructions. […]

Experiment [2] concerns AML12 hepatocytes. In words: Intracellular ROS levels by DCF-DA flow cytometry. The format is cell-based, mouse. The conditions noted are these: one hour pre-treatment with NAC (2 mmol/L). As for the experimental part:
as §1, with “hrs. The fluorescent probe, dichlorofluorescein diacetate (DCF-DA) (Invitrogen, Carlsbad, Calif.), was used to monitor the intracellular generation of ROS induced by hypoxia. After cells were incubated with 10 μmol/l DCF-DA for 30 min as previously described (67), cells were trypsinized, pelleted by centrifugation and resuspended in phosphate-buffered saline for FACS analysis by using a FACS LSRII flow cytometer (Becton Dickinson, San Diego, Calif.). The oxidized form of DCF-DA was excited at 488 nm and detected at 530 nm. Data were analyzed using CellQuest software.” for “hrs.”
For orientation: A flow cytometer gives signals particle by particle.

With `Oc1ccc(C=Cc2cc(O)cc(O)c2)cc1` [resveratrol], in the experiment on β-catenin/TCF signaling (hepatocytes, Sirt1 agonist), the “β-catenin/TCF signal transduction (Sirt1 agonist)” value is “significantly inhibited β-catenin/TCF signal transduction”.

With `OCc1ccc(-c2nn(Cc3ccccc3)c3ccccc23)o1` [YC-1, 3-(5′-hydroxymethyl-2′-furyl)-1-benzylindazole], the “Apoptosis under hypoxia (MTT assay, caspase-cleaved K18Asp237)” value in the experiment on AML12 hepatocytes [1] is reported as “induced significant apoptosis; also recorded: more apoptosis”. For the same compound, the “HIF-1 signal activity (HRE reporter) under hypoxia” value in the experiment with HIF-1 (hypoxia, pre-treatment with YC-1 (100 μmol/L) for 1 hour) was “significantly reduced HRE activity; also recorded: inhibits the hypoxia-induced increase in HIF-1 signal activity”.

Take `[Cl][Co][Cl]` [CoCl2, cobalt chloride]: the “HIF-1α induction (HRE reporter assay and immunoblot)” value with HIF-1 (CoCl2 (150 μmol/L)) is reported as “HIF-1α induction was verified”. In the experiment on β-catenin/TCF signaling (AML12 hepatocytes, CoCl2 (150 μmol/L) under normoxia or hypoxia), the “β-catenin/TCF reporter activity after HIF-1α stabilization” value is given as “significant reduction in TCF signal transduction; also recorded: reduced”.

As for `NC(=O)c1cccnc1` [NAM, nicotinamide], the “Hypoxia-induced suppression of TCF signaling (Sirt1 inhibition)” value in the experiment with β-catenin/TCF signaling (hepatocytes under hypoxia, addition of Sirt1 inhibitor) is reported as “abolished this effect”.

Take `CC(=O)N[C@@H](CS)C(=O)O` [NAC, N-acetylcysteine]: the “Intracellular ROS levels under hypoxia” value in the experiment on AML12 hepatocytes [2] is recorded as “decrease intracellular ROS; also recorded: significantly prevents ROS production under hypoxia”. In addition, the “β-catenin/TCF signaling (reporter activity) under hypoxia” value in the experiment with β-catenin/TCF signaling (AML12 hepatocytes, hypoxia, one hour pre-treatment with NAC (2 mmol/L)) is “diminish the suppressive effect of hypoxia derived ROS on β-catenin/TCF signal transduction; also recorded: prevents hypoxia-induced inhibition of β-catenin/TCF signaling”.
